In patent US8772241B2, “Peptide and use thereof” (Ensoltek Co., Ltd., priority 2010, dated 2014):

Columns and labels:
[1] = tested on: type II collagen (COL2A1); experiment: Articular chondrocyte pellet, RT-PCR expression of type II collagen; conditions: for Relative expression of Type II collagen (%) (Mean ± SD): no treatment = 100, n=3, peptide as in Example 1 test (25 μM)
Description: (§1) In order to ensure that cellular properties of articular chondrocytes are maintained similarly to those of biological tissue, the cells were pelleted and cultured.
Cartilage tissue was prepared from hoof joints of less than 3-year old cows within one hour of being sacrificed at a regional slaughterhouse (located in Ojeong-dong, Daejeon, South Korea). For this purpose, a cartilage portion other than bone was cut using a surgical knife and collected to use. The cartilage tissue was sliced into a hexahedron of about 1 mm long at each side and placed in DMEM/F12 (Welgene) supplemented with Pronase (1 mg/ml, Roche), followed by reaction in a 5% CO2 incubator at 37° C. for 1.5 hours. The Pronase-treated tissue was washed twice with PBS(phosphate buffered saline) and then once with DMEM/F12. The washed cartilage tissue was placed in DMEM/F12 supplemented with 5% FBS (fetal bovine serum) (Invitrogen), Collagenase P (0.25 mg/ml, Roche) and DNase I (20 μg/ml, Sigma) and was allowed to react in a 5% CO2 incubator at 37° C. for 8 to 12 hours, such that the tissue was completely degraded. After the degradation was completed, the cells were collected by centrifugation at 500 xg for 15 minutes and washed twice with PBS. The cells were suspended at a cell density of 2×10^6 cells/ml in DMEM/F12 supplemented with 10% FBS and ascorbate (50 μg/ml, Sigma), and lml/tube of the cells were dispensed into 15 ml conical tubes. The cells were pelleted by centrifugation at 500 xg for 10 minutes and cultured in a 5% CO2 incubator at 37° C. for 2 days, thereby preparing a cell pellet which is solid. The pellet was transferred to a 24-well plate and cultured for 5 days. […] On Day 13, the cells were cultured in serum-free media for 24 hours.
RNA was isolated from the cultured pellet using TRIZOL (Invitrogen) and quantified by absorbance at 260 nm. cDNA was synthesized from 2.25 μg of RNA, using a random hexamer and 5× Reverse Transcriptase Master premix (Elpis Biotech, South Korea). Using 1 μl of synthesized cDNA, amplification was carried out by polymerase chain reaction (PCR) to investigate expression levels of genes. The genes to be investigated are as follows: a gene for chondrocyte-characteristic type II collagen (COL2A1) as a gene for confirming the regeneration of articular cartilage tissue; a gene for matrix metallopeptidase 13 (MMP13) which is over-expressed in damaged cartilage tissue and is involved in the degradation of the matrix, as a gene for confirming whether or not it is capable of preventing additional cartilage damage; and a gene for type X collagen (COL10A1) characteristic to hypertrophic chondrocytes involved in the ossification of articular tissue, as a gene for confirming whether or not it is over-activated and progressed to ossification.
Specifically, PCR was carried out under the following reaction conditions. The PCR reaction employed 1 μl of cDNA, 10 μl of 2× Taq polymerase master mix (Solgent), 0.5 μl of each primer set (10 pmole/μl), and 8 μl of distilled water. PCR amplification consisted of denaturation at 94° C. for 2 minutes, followed by reaction at 94° C. for 30 seconds, at 58° C. for 45 seconds and at 72° C. or 1 minute, with 32 cycles for Type II collagen, Type X collagen and MMP13, and 26 cycles for GAPDH, respectively.

[2] = tested on: damaged cartilage tissue explants (articular chondrocyte explants); experiment: Cartilage regeneration in damaged cartilage tissue explants; assay type: cell-based, cows; conditions: for changes in damaged region of explant (micrograph, FIG. 1): 25 μM peptide
Description: Using a syringe (21G) whose tip was truncated and ground, damaged regions were prepared by making vertical holes to the surface uniformly at the center of the explant.
The perforated tissue explants were divided into 4 groups including a control group. […] In addition, the 1-week-incubated tissue explant and the 6-week-incubated tissue explant were fixed, respectively, in a 3.7% formaldehyde/phosphate buffered saline(3.7% formaldehyde/PBS). Then, according to the experimental method of standard histochemistry, paraffin section slides were prepared, followed by hematoxylin & eosin (H&E) staining and microscopic examination of cell shape and distribution in terms of morphology. Collagen was subjected to Masson's trichrome staining, and the shape and distribution of cells in the tissue were examined under a microscope. For comparison, the control group was treated in the same manner as in the group treated with the peptide of Example 1, except that the peptide of Example 1 was not treated.

[3] = tested on: matrix metallopeptidase 13 (MMP13); experiment: Articular chondrocyte pellet, RT-PCR expression of MMP13; assay type: cell-based, cows; conditions: 25 μM peptide; normalized to GAPDH
Description: as §1
(§2) Cartilage tissue was prepared from hoof joints of less than 3-year old cows within one hour of being sacrificed at a regional slaughterhouse (located in Ojeong-dong, Daejeon, South Korea). For this purpose, a cartilage portion other than bone was cut using a surgical knife and collected to use. The cartilage tissue was sliced into a hexahedron of about 1 mm long at each side and placed in DMEM/F12 (Welgene) supplemented with Pronase (1 mg/ml, Roche), followed by reaction in a 5% CO2 incubator at 37° C. for 1.5 hours. The Pronase-treated tissue was washed twice with PBS(phosphate buffered saline) and then once with DMEM/F12. The washed cartilage tissue was placed in DMEM/F12 supplemented with 5% FBS (fetal bovine serum) (Invitrogen), Collagenase P (0.25 mg/ml, Roche) and DNase I (20 μg/ml, Sigma) and was allowed to react in a 5% CO2 incubator at 37° C. for 8 to 12 hours, such that the tissue was completely degraded. […]
(§3) RNA was isolated from the cultured pellet using TRIZOL (Invitrogen) and quantified by absorbance at 260 nm. cDNA was synthesized from 2.25 μg of RNA, using a random hexamer and 5× Reverse Transcriptase Master premix (Elpis Biotech, South Korea). […]

[4] = tested on: type X collagen (COL10A1); experiment: Articular chondrocyte pellet, RT-PCR expression of type X collagen; assay type: cell-based, cows; conditions: 25 μM peptide; normalized to GAPDH
Description: as §1, §2, §3

[5] = tested on: degenerative arthritis model; experiment: Cartilage regeneration in degenerative arthritis model (anterior cruciate ligament excision); assay type: in vivo, New Zealand white rabbits; conditions: intra-articular cavity injection once a week for 4 weeks
Description: As experimental animals, 18 to 22-week-old male New Zealand white rabbits (n=10), weighing 3 to 3.5 kg, were purchased from Orient Bio Inc. (South Korea). The animal experiments were performed in accordance with guidelines of the Institute of Laboratory Animal Resources (ILAR) under approval of Institutional Animal Care and Use Committee of Samsung Biomedical Research Institute (SBRI, Seoul, South Korea). Degeneration of articular cartilage was induced by surgically dissecting the patellar anterior cruciate ligament of rabbits and breeding the animals in a cage for 4 weeks. The animals were divided into a control group and an experimental group.
The rabbits were put under general anesthesia by intramuscularly injecting 2.5 mg/kg of xylazine (Rompun, Bayer) and 8 mg/kg of Tiletamine/Zolazepam (Zoletil, Virbac). Then, the patellar joints of right hind legs of animals were shaved and disinfected. Patellar skins and joint capsules were excised and patellae were displaced to expose anterior cruciate ligaments. Thereafter, the ligament was excised using a razor blade (No. 11) and the joint capsule and skin were sutured. After the surgical operation was completed, the rabbits were raised in a cage for 4 weeks while allowing for routine motion. The animals were housed under the following conditions: temperature of 20 to 25° C. humidity of 10% to 50%, and Light/Dark (L/D) cycle: (light from 08:00 a.m. to 20:00 p.m.). All animals were fed once a day. At Week 4 after the surgical operation, the rabbits were divided into two groups, followed by intra-articular cavity injection. The control group was given an injection of a vehicle (5% lactose/physiological saline). For the experimental group, 200 μl of 52.5 μM peptide solution was injected to the group to which 30 μM of the peptide of Example 1 was administered, and 200 μl of 157.5 μM peptide solution was injected to the group to which 90 μM of the peptide of Example 1 was administered. The above-mentioned peptide was prepared in a solvent of 5% lactose/physiological saline prior to use. An injection was given once a week for 4 weeks. 1 and 5 weeks after the final injection (Week 8 and 12 after the first operation), the experimental animals were euthanized by vascular injection of 1 to 2 mM/kg of KCl under deep anesthesia.
The proximal portion (femoral region) of the patellar articular bone was excised. For the comparison with normal tissue, left normal articular region was also additionally excised, followed by naked-eye examination and photographing. The excised articular regions were fixed in 10% formalin, decalcified by using a decalcifier solution (CalciClear Rapid, National Diagnostics), and then made into paraffin blocks. The frontal plane of articular bone was cut into a thickness of 4 μm, thereby preparing a slide. […]

Row | Substance | Relative expression of Type II collagen (%) (Mean ± SD) [1] | other results
1 | Asp-Leu-Arg-Leu-Glu (DLRLE; Artificial peptide sequence prepared by coupling amino acid units one by one from the C-terminal, by Fmoc SPPS (9-flourenlymethyloxycarbonyl solid phase peptide synthesis) using an automated peptide synthesizer.) [Example 12] | 159 ± 28 | –
2 | Asp-Leu-Lys-Leu-Asp (DLKLD; Artificial peptide sequence prepared by coupling amino acid units one by one from the C-terminal, by Fmoc SPPS (9-flourenlymethyloxycarbonyl solid phase peptide synthesis) using an automated peptide synthesizer.) [Example 9] | 147 ± 41 | –
3 | Asp-Leu-Arg-Leu-Asp (DLRLD; Artificial peptide sequence prepared by coupling amino acid units one by one from the C-terminal, by Fmoc SPPS (9-flourenlymethyloxycarbonyl solid phase peptide synthesis) using an automated peptide synthesizer.) [Example 11] | 157 ± 34 | –
4 | Glu-Leu-His-Leu-Asp (ELHLD; Artificial peptide sequence prepared by coupling amino acid units one by one from the C-terminal, by Fmoc SPPS (9-flourenlymethyloxycarbonyl solid phase peptide synthesis) using an automated peptide synthesizer.) [Example 1] | 155 ± 12 | damaged region of explant, hematoxylin & eosin staining (FIG. 4) ([2]; 6-week culture, 25 μM peptide and/or 2 ng/ml TGFβ1): the damaged region was narrowed; changes in damaged region of explant (micrograph, FIG. 1) ([2]; after 2 weeks): gradually decreased; changes in damaged region of explant (micrograph, FIG. 1) ([2]; after 4 weeks, with or without 2 ng/ml TGFβ1): cells began to adhere around the damaged region; changes in damaged region of explant (micrograph, FIG. 1) ([2]; after 6 weeks, with or without 2 ng/ml TGFβ1): remarkably reduced; decrease in the expression of MMP13, as compared to the control group [3]: 10%; decrease in the expression of type X collagen (COL10A1), as compared to the control group [4]: 69%; proteoglycan in the cartilage matrix, Safranin O staining (FIG. 10) ([5]; 30 μM and 90 μM): increased synthesis of proteoglycan in a dose-dependent manner; articular cartilage tissue observed by naked eyes (FIG. 8) ([5]; 30 μM, 90 μM): smooth surface and gloss close to the normal state; H&E staining pattern of cartilage tissue (FIG. 9) [5]: staining pattern similar to that of the normal group; cell size in H&E staining (FIG. 9) [5]: increased cell size; increase in the expression of type II collagen, as compared to the control group ([1]; 25 μM peptide, normalized to GAPDH): 55%
5 | Asp-Leu-Lys-Leu-Glu (DLKLE; Artificial peptide sequence prepared by coupling amino acid units one by one from the C-terminal, by Fmoc SPPS (9-flourenlymethyloxycarbonyl solid phase peptide synthesis) using an automated peptide synthesizer.) [Example 10] | 166 ± 26 | –
6 | Glu-Leu-His-Leu-Glu (ELHLE; Artificial peptide sequence prepared by coupling amino acid units one by one from the C-terminal, by Fmoc SPPS (9-flourenlymethyloxycarbonyl solid phase peptide synthesis) using an automated peptide synthesizer.) [Example 2] | 163 ± 19 | –
7 | Asp-Leu-His-Leu-Glu (DLHLE; Artificial peptide sequence prepared by coupling amino acid units one by one from the C-terminal, by Fmoc SPPS (9-flourenlymethyloxycarbonyl solid phase peptide synthesis) using an automated peptide synthesizer.) [Example 8] | 115 ± 42 | –
8 | Asp-Leu-His-Leu-Asp (DLHLD; Artificial peptide sequence prepared by coupling amino acid units one by one from the C-terminal, by Fmoc SPPS (9-flourenlymethyloxycarbonyl solid phase peptide synthesis) using an automated peptide synthesizer.) [Example 7] | 190 ± 38 | –
9 | Glu-Leu-Arg-Leu-Asp (ELRLD; Artificial peptide sequence prepared by coupling amino acid units one by one from the C-terminal, by Fmoc SPPS (9-flourenlymethyloxycarbonyl solid phase peptide synthesis) using an automated peptide synthesizer.) [Example 5] | 149 ± 27 | –
10 | Glu-Leu-Lys-Leu-Glu (ELKLE; Artificial peptide sequence prepared by coupling amino acid units one by one from the C-terminal, by Fmoc SPPS (9-flourenlymethyloxycarbonyl solid phase peptide synthesis) using an automated peptide synthesizer.) [Example 4] | 124 ± 12 | –
11 | Glu-Leu-Arg-Leu-Glu [Example 6] | 158 ± 38 | –
12 | Glu-Leu-Lys-Leu-Asp (ELKLD; Artificial peptide sequence prepared by coupling amino acid units one by one from the C-terminal, by Fmoc SPPS (9-flourenlymethyloxycarbonyl solid phase peptide synthesis) using an automated peptide synthesizer.) [Example 3] | 161 ± 29 | –
